Data from patent US8278306B2 (Vertex Pharmaceuticals Incorporated, priority 2006, dated 2012).

Tests used:
[1] = target: CYP2C9 (Homo sapiens, UniProt P11712); assay: Cytochrome P450 isozyme inhibition, fluorescent Vivid substrate; type: in vitro ADME; details: 10 nM CYP2C9, 1 μM Vivid 2C9 Green, 60 minutes
Experimental: (§1) Selected compounds of the invention were assayed for their ability to inhibit various cytochrome P450 isozymes, such as, for example CYP2D6, CYP2C9, CYP1A2, CYP2C19, CYP3A4, CYP2C9, and CYP3A4 (human liver microsome). Such assays are described by Crespi et al., Anal. Biochem. 248:188-90, 1997; Ekins et al., J. Pharmacol. Exp. Ther. 290, 429-38, 1999; and Ekins et al., J. Pharmacol. Exp. Ther. 291, 424-33, 1999. In a typical isozyme inhibition experiment, test compounds are placed into a microwell on a microtiter plate as an 8 nL solution (2 mM in 75% DMSO/water). The plate is centrifuged for 2 minutes at approximately 1000 rpm to shift the compound to the bottom of the well. Polyvinylpyrrolidone (PVP/10K, 100 nL, 0.2% in 75% DMSO/water) is added to the well and this excipient also centrifuged for 2 minutes at approximately 1000 rpm to ensure mixing with the compound. The plates containing the wells are dried in vacuo. Distilled water (800 nL) is added to the wells containing compound, the background control wells, and the positive control wells, followed by the addition of 200 nL of phosphate buffer (500 mM potassium phosphate butter at pH=8.4). The positive control cells contain a drug such as, for example, miconazole. Insect baculosomes (PanVera P2315) in […] phosphate buffer was added to the background control wells and the plate was scanned for compound fluorescence. […] Therefore, CYP450 isozyme (400 nL) and recycling buffer (3.3 mM glucose-6-phosphate, 0.4 units/mL glucose-6-phosphate dehydrogenase, 100 mM MgCl2, and 0.00025% Antifoam 289) in 100 mM phosphate buffer was added to each well containing compound and background control to obtain the following concentrations: 5 nM CYP3A4, 10 nM CYP2C9, 5 nM CYP1A2, 5 nM CYP2C19, and 20 nM CYP2D6. After incubation for 60 minutes, the wells were read with a fluorescent plate reader.

[2] = target: CYP2D6 (Homo sapiens, UniProt P10635); assay: as above; type: in vitro ADME; details: 20 nM CYP2D6, 10 μM Vivid 2D6 Blue, 60 minutes
Experimental: as §1

[3] = target: T1, CYP1A2 (Homo sapiens, UniProt P05177); assay: as above; type: in vitro ADME; details: 5 nM CYP1A2, 2 μM Vivid 1A2 Blue, 60 minutes
T1 sequence (P05177 1-516): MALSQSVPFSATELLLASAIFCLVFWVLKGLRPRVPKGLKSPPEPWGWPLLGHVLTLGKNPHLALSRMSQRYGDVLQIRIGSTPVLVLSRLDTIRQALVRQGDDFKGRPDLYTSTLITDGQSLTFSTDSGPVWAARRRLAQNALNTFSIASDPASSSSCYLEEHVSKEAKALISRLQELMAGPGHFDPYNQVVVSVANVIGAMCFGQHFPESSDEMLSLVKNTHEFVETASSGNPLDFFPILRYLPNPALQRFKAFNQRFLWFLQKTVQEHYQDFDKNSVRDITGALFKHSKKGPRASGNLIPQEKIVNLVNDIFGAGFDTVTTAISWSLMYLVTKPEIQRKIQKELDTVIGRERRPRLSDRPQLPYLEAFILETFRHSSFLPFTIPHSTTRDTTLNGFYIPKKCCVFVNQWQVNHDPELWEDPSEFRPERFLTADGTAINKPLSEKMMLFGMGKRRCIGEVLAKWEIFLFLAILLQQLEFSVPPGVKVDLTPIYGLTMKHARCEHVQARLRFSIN
Experimental: as §1

[4] = target: CYP2C19 (Homo sapiens, UniProt P33261); assay: as above; type: in vitro ADME; details: 5 nM CYP2C19, 10 μM Vivid 2C19 Blue, 60 minutes
Experimental: as §1

[5] = target: T2, CYP3A4 (human liver microsome) (Homo sapiens, UniProt P08684); assay: Cytochrome P450 inhibition, human liver microsome; type: in vitro ADME; details: read-out: CYP3A4 (HLM) Ki
T2 construct: CYP3A4 (human liver microsome); from tissue; host or cells: human liver microsomes
Experimental: (§2) Selected compounds of the invention were assayed for their ability to inhibit various cytochrome P450 isozymes, such as, for example CYP2D6, CYP2C9, CYP1A2, CYP2C19, CYP3A4, CYP2C9, and CYP3A4 (human liver microsome). Such assays are described by Crespi et al., Anal. Biochem. 248:188-90, 1997; Ekins et al., J. Pharmacol. Exp. Ther. 290, 429-38, 1999; and Ekins et al., J. Pharmacol. Exp. Ther. 291, 424-33, 1999. […] The plate is centrifuged for 2 minutes at approximately 1000 rpm to shift the compound to the bottom of the well. […] Distilled water (800 nL) is added to the wells containing compound, the background control wells, and the positive control wells, followed by the addition of 200 nL of phosphate buffer (500 mM potassium phosphate butter at pH=8.4). The positive control cells contain a drug such as, for example, miconazole. […] After incubation for 60 minutes, the wells were read with a fluorescent plate reader.

[6] = target: CYP3A4 (Homo sapiens, UniProt P08684); assay: Cytochrome P450 isozyme inhibition, fluorescent Vivid substrate; type: in vitro ADME; details: 5 nM CYP3A4, 5 μM Vivid 3A4 Red, 60 minutes
Experimental: as §2, with “miconazole. Insect baculosomes (PanVera […]) in […] phosphate buffer was added to the background control wells and the plate was scanned for compound fluorescence.” for “miconazole.”

[7] = target: T3, ROCK I (AA 6-553) (Homo sapiens, UniProt Q13464); assay: ROCK inhibition assay, standard coupled enzyme system; type: biochemical; details: 45 nM ROCK I, 45 μM ATP, 200 μM peptide, 30° C.
T3 construct: ROCK I (AA 6-553)
Experimental: Reactions were carried out in a solution containing 100 mM HEPES (pH 7.5), 10 mM MgCl2, 25 mM NaCl, 2 mM DTT and 1.5% DMSO.

CYP2C19, sequence (P33261 whole entry): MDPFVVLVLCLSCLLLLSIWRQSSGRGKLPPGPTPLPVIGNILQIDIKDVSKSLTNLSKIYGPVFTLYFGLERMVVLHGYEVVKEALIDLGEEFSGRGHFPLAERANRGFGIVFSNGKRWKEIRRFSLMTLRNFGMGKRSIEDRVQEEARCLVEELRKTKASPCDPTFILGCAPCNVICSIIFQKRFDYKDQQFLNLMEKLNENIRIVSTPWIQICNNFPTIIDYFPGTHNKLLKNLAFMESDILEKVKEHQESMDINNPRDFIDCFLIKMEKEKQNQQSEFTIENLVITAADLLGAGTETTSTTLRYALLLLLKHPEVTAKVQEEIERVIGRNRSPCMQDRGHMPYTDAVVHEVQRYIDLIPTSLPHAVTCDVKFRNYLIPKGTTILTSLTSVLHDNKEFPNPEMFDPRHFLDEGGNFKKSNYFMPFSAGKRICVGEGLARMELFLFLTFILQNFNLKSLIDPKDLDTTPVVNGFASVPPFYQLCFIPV
CYP2D6, sequence (P10635 whole entry): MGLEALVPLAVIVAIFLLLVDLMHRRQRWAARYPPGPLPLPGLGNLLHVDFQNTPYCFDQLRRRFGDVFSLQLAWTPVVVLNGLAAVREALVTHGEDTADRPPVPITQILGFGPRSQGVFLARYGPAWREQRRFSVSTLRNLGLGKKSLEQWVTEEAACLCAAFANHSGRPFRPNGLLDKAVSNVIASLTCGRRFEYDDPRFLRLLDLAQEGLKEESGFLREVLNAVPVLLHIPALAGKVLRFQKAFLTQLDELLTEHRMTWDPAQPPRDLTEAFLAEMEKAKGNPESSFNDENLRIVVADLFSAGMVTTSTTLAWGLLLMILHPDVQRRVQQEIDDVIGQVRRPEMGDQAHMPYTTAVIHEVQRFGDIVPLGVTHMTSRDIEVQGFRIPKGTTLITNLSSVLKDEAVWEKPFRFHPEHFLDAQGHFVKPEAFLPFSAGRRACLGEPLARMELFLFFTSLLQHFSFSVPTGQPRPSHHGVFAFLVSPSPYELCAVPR
T3 sequence (Q13464 6-553, species assumed): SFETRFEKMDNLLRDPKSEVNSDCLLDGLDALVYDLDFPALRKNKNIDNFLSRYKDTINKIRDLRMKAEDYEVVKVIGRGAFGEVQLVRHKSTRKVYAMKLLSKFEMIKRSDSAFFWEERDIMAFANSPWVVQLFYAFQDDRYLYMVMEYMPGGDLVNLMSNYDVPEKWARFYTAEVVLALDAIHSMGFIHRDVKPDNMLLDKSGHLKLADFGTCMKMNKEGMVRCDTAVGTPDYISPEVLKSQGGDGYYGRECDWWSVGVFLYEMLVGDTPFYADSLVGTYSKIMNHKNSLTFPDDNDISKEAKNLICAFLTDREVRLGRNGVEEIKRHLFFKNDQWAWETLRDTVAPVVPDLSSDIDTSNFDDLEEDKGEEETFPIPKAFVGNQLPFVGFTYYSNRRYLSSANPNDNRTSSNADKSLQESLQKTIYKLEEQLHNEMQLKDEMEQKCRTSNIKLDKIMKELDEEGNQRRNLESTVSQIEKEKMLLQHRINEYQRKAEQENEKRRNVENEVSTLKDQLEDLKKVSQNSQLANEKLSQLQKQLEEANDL
CYP3A4, sequence (P08684 whole entry): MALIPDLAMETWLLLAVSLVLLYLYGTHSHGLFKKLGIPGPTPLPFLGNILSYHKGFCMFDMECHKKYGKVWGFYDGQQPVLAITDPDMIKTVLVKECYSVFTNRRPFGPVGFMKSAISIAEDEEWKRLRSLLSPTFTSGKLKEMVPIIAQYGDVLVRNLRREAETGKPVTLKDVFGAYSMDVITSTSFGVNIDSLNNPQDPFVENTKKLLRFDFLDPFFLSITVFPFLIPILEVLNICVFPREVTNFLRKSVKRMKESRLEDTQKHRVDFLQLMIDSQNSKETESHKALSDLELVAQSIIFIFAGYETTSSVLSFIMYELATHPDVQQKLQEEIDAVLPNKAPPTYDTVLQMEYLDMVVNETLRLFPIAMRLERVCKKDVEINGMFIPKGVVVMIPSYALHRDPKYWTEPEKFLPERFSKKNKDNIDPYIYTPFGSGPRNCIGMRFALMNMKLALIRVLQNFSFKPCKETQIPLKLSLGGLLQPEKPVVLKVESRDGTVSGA
T2 sequence (P08684 whole entry): as above
CYP2C9, sequence (P11712 whole entry): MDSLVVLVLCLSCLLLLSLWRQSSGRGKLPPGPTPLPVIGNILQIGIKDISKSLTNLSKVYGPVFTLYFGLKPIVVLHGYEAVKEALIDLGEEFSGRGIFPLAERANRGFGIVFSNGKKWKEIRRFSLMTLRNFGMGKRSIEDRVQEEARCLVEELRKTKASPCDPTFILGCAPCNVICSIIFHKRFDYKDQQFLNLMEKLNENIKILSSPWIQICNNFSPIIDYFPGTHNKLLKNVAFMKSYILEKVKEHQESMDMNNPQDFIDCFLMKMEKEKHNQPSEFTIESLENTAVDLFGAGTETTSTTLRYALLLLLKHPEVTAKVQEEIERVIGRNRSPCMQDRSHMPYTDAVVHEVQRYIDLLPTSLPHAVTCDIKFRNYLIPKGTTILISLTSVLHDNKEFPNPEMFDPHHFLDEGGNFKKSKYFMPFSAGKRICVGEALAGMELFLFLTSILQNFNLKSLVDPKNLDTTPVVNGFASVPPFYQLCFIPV

Row | SMILES | Ki [1] | Ki [2] | Ki [3] | Ki [4] | Ki [5] | Ki [6] | Ki [7]
1 | COc1cccc(CC(=O)Nc2cc(-c3ccnc(N)c3)cs2)c1 [Compound 64, N-(4-(2-aminopyridin-4-yl)thiophen-2-yl)-2-(3-methoxyphenyl)acetamide] | 1 to 10 µM | 1 to 10 µM | 1 to 10 µM | > 10 µM |  |  | 
2 | COc1cccc(CC(=O)Nc2cc(-c3ccnc(C)c3)cs2)c1 [Compound 80] | 1 to 10 µM | > 10 µM | > 10 µM | 1 to 10 µM | 1 to 10 µM | 1 to 10 µM | 0.1 to 1 µM
3 | COc1cccc(CC(=O)Nc2cc(-c3ccnc(Cl)c3)cs2)c1 [Compound 62] | 1 to 10 µM |  | > 10 µM |  |  |  | 
4 | COc1cccc(CC(=O)Nc2cc(-c3ccnc(F)c3)cs2)c1 [Compound 61] | 1 to 10 µM | > 10 µM | > 10 µM | 1 to 10 µM |  |  | 
5 | O=C(Cc1cccc(O)c1)Nc1cc(-c2ccnc(Cl)c2)cs1 [Compound 101] | 1 to 10 µM |  | 1 to 10 µM | 1 to 10 µM | 1 to 10 µM | 1 to 10 µM | < 0.1 µM
6 | CN(C)S(=O)(=O)c1cccc(CC(=O)Nc2cc(-c3ccnc(N)c3)cs2)c1 [Compound 79] |  |  |  |  |  |  | 0.1 to 1 µM
7 | O=C(Cc1cc2c(cc1Cl)OCO2)Nc1nc(-c2ccnc(NCc3ccccc3)c2)cs1 [Compound 26] |  |  |  |  |  |  | 0.1 to 1 µM
8 | O=C(Cc1cc2c(cc1Cl)OCO2)Nc1nc(-c2ccnc(Cl)c2)cs1 [Compound 49] |  |  |  |  |  |  | < 0.1 µM
9 | Cc1cc(-c2csc(NC(=O)Cc3cc(NS(C)(=O)=O)ccc3F)c2)ccn1 [Compound 86] |  |  |  |  |  |  | < 0.1 µM
10 | COc1cc(-c2csc(NC(=O)Cc3ccc(F)cc3)n2)ccn1 [Compound 4] |  |  |  |  |  |  | > 1 µM
11 | CS(=O)(=O)Nc1cccc(CC(=O)Nc2nc(-c3ccnc(Cl)c3)cs2)c1 [Compound 51] |  |  |  |  |  |  | 0.1 to 1 µM

Continued, values first:

Row | Ki [1] | Ki [2] | Ki [3] | Ki [4] | Ki [5] | Ki [6] | Ki [7] | SMILES
12 | > 10 µM |  | > 10 µM |  | > 10 µM | > 10 µM | 0.1 to 1 µM | Cc1cc(-c2csc(NC(=O)Cc3cccc(OCCCN4CCN(C)CC4)c3)c2)ccn1 [Compound 90]
13 | > 10 µM |  | > 10 µM | > 10 µM | > 10 µM | > 10 µM | > 1 µM | Cc1cc(-c2csc(NC(=O)Cc3cccc(OCCN4CCCCC4)c3)c2)ccn1 [Compound 94]
14 | > 10 µM |  | > 10 µM | > 10 µM | > 10 µM | > 10 µM | 0.1 to 1 µM | Cc1cc(-c2csc(NC(=O)Cc3cccc(OCCN4CCN(C)CC4)c3)c2)ccn1 [Compound 93]
15 | > 10 µM |  | > 10 µM | > 10 µM | > 10 µM | > 10 µM | 0.1 to 1 µM | Cc1cc(-c2csc(NC(=O)Cc3cccc(OCCN4CCNCC4)c3)c2)ccn1 [Compound 92]
16 | > 10 µM | > 10 µM | > 10 µM |  | > 10 µM | > 10 µM | < 0.1 µM | CN1CCN(CCOc2cccc(CC(=O)Nc3cc(-c4ccnc(F)c4)cs3)c2)CC1 [Compound 73]
17 |  |  |  |  |  |  | < 0.1 µM | CN1CCN(CCCOc2cccc(CC(=O)Nc3nc(-c4ccnc(F)c4)cs3)c2)CC1 [Compound 60]
18 | > 10 µM |  | > 10 µM | 1 to 10 µM | > 10 µM | > 10 µM | < 0.1 µM | Cc1cc(-c2csc(NC(=O)Cc3cccc(OCCCN4CCNCC4)c3)c2)ccn1 [Compound 89]
19 |  |  |  |  |  |  | < 0.1 µM | CN1CCN(CCCOc2ccc(CC(=O)Nc3cc(-c4ccnc(Cl)c4)cs3)c(Cl)c2)CC1 [Compound 98]
20 |  | 1 to 10 µM | > 10 µM | 1 to 10 µM | > 10 µM | 1 to 10 µM | < 0.1 µM | O=C(Cc1cccc(OCCCC2CCNCC2)c1)Nc1cc(-c2ccnc(F)c2)cs1 [Compound 72]
21 |  |  |  |  |  |  | 0.1 to 1 µM | Cc1cc(-c2csc(NC(=O)Cc3cccc(OCCCN4CCN(C)CC4)c3)n2)ccn1 [Compound 39]
22 |  |  |  |  |  |  | < 0.1 µM | CN1CCN(CCCOc2cccc(CC(=O)Nc3nc(-c4ccnc(Cl)c4)cs3)c2)CC1 [Compound 53]
